Assay results taken from article PMC7584476, “Safety and efficacy of BAY1436032 in IDH1-mutant AML: phase I study results” (Leukemia, 2020).

Tested on: subjects with mIDH1 advanced AML
Test: Phase I study: safety and tolerability (TEAE, DLT, MTD, ECG)
Assay type: in vivo
Description: This study was an open-label, nonrandomized, multicenter phase I trial. Subjects were screened at 13 hospital sites in 2 countries (USA and Germany). The study was to consist of dose-escalation followed by dose-expansion. The MTD identified in dose-escalation was to be used in the dose-expansion. If MTD was not reached in dose-escalation, a dose for the expansion would be selected based on available PK, pharmacodynamic, safety, and efficacy data. BAY1436032 was administered twice-daily (BID) in continuous 28-day cycles. In dose-escalation, up to 9 evaluable subjects could be enrolled per cohort, with a minimum of 3 dose-limiting toxicity (DLT)-free evaluable subjects required prior to escalating to the next highest dose. Bayesian dose-DLT modeling was performed to help guide dosing decisions.
DLTs were differentially defined for nonhematopoietic versus hematopoietic toxicities. Nonhematopoietic toxicities of ≥grade 3 occurring during the first cycle of treatment were to be considered DLTs with the following exceptions: (1) Alopecia and nausea controlled by medical management; (2) Tumor lysis syndrome if successfully managed clinically and resolved within 7 days without any end-organ damage; (3) Differentiation syndrome (DS) if successfully managed clinically and resolved within 7 days without any end-organ damage; (4) Asymptomatic ≥grade 3 electrolyte abnormalities not considered clinically significant by the investigator. […] For certain toxicities such as laboratory assessments without a clear clinical correlate, a discussion between the investigator and the sponsor determined whether the adverse event (AE) should be assessed as a DLT.
DLTs identified during the first cycle of treatment were used to guide dose-escalation decisions and to determine the MTD, and if safety issues appeared in subsequent cycles they were also to be considered. Hydroxyurea was permitted during the first cycle if white blood cell (WBC) exceeded 20 × 10^9/L and was also permitted for treatment of DS.
Safety and tolerability were evaluated by analysis of adverse events, physical examinations, vital signs, ECOG performance status, and various laboratory assessments. For safety monitoring, subjects were scheduled for clinic visits every week for the initial three cycles of treatment, after which time visits could be reduced to every-other-week with investigator and sponsor agreement. Cardiac function was assessed with triplicate 12-lead electrocardiograms (ECG) at screening, C1-D1, C1-D2, C1-D15, D1 of every subsequent cycle, and at treatment end. […] AEs are presented by the Medical Dictionary for Regulatory Activities (MedDRA) v21.1.

C[C@H]1C[C@@H](n2c(Nc3ccc(OC(F)(F)F)cc3)nc3cc(CCC(=O)O)ccc32)CC(C)(C)C1 [BAY1436032]
0: TEAE Decreased appetite Grade 1 (600 mg BID, n=4) | TEAE Decreased appetite Grade 2 (600 mg BID, n=4) | TEAE Decreased appetite Grade 3 (600 mg BID, n=4) | TEAE Diarrhea Grade 1 (600 mg BID, n=4) | TEAE Diarrhea Grade 2 (600 mg BID, n=4) | TEAE Dyspnoea Grade 1 (600 mg BID, n=4) | TEAE Dyspnoea Grade 2 (600 mg BID, n=4) | TEAE Dyspnoea Grade 3 (600 mg BID, n=4) | TEAE Epistaxis Grade 2 (600 mg BID, n=4) | TEAE Fatigue Grade 2 (600 mg BID, n=4) | TEAE Fatigue Grade 3 (600 mg BID, n=4) | TEAE General physical health deterioration Grade 3 (600 mg BID, n=4) | TEAE General physical health deterioration Grade 5 (600 mg BID, n=4) | TEAE Haematuria Grade 1 (600 mg BID, n=4) | TEAE Haematuria Grade 3 (600 mg BID, n=4) | TEAE Headache Grade 1 (600 mg BID, n=4) | TEAE Headache Grade 2 (600 mg BID, n=4) | TEAE Headache Grade 3 (600 mg BID, n=4) | TEAE Hypertension Grade 2 (600 mg BID, n=4) | TEAE Hypertension Grade 3 (600 mg BID, n=4) | TEAE Hypokalaemia Grade 1 (600 mg BID, n=4) | TEAE Hypokalaemia Grade 2 (600 mg BID, n=4) | TEAE Hypokalaemia Grade 3 (600 mg BID, n=4) | TEAE Hyponatraemia Grade 1 (600 mg BID, n=4) | TEAE Hyponatraemia Grade 3 (600 mg BID, n=4) | TEAE Hypophosphataemia Grade 1 (600 mg BID, n=4) | TEAE Hypophosphataemia Grade 2 (600 mg BID, n=4) | TEAE Leukocytosis Grade 2 (600 mg BID, n=4) | TEAE Leukocytosis Grade 3 (600 mg BID, n=4) | TEAE Lung infection Grade 5 (600 mg BID, n=4) | TEAE Nausea Grade 2 (600 mg BID, n=4) | TEAE Nausea Grade 3 (600 mg BID, n=4) | TEAE Oedema peripheral Grade 3 (600 mg BID, n=4) | TEAE Pain in extremity Grade 1 (600 mg BID, n=4) | TEAE Pain in extremity Grade 2 (600 mg BID, n=4) | TEAE Pneumonia Grade 1 (600 mg BID, n=4) | TEAE Pneumonia Grade 2 (600 mg BID, n=4) | TEAE Pneumonia Grade 3 (600 mg BID, n=4) | TEAE Pneumonia fungal Grade 2 (600 mg BID, n=4) | TEAE Pneumonia fungal Grade 3 (600 mg BID, n=4) | TEAE Pneumonia fungal Grade 4 (600 mg BID, n=4) | TEAE Productive cough Grade 2 (600 mg BID, n=4) | TEAE Pyrexia Grade 3 (600 mg BID, n=4) | TEAE Rash Grade 1 (600 mg BID, n=4) | TEAE Sepsis Grade 5 (600 mg BID, n=4) | TEAE Sinus tachycardia Grade 1 (600 mg BID, n=4) | TEAE Thrombocytopenia Grade 4 (600 mg BID, n=4) | TEAE Weight decreased Grade 1 (600 mg BID, n=4) | TEAE Weight decreased Grade 3 (600 mg BID, n=4) | Related TEAE Decreased appetite Grade 1 (1200 mg BID, n=7) | Related TEAE Decreased appetite Grade 2 (1200 mg BID, n=7) | Related TEAE Differentiation syndrome Grade 2 (1200 mg BID, n=7) | Related TEAE Dyspnea Grade 2 (1200 mg BID, n=7) | Related TEAE Fatigue Grade 1 (1200 mg BID, n=7) | Related TEAE Fatigue Grade 3 (1200 mg BID, n=7) | Related TEAE Hypomagnesaemia Grade 1 (1200 mg BID, n=7) | Related TEAE Nausea Grade 2 (1200 mg BID, n=7) | Related TEAE Sinus tachycardia Grade 1 (1200 mg BID, n=7) | Related TEAE Vomiting Grade 1 (1200 mg BID, n=7) | TEAE Abdominal pain upper Grade 1 (1200 mg BID, n=7) | TEAE Abdominal pain upper Grade 2 (1200 mg BID, n=7) | TEAE Acute kidney injury Grade 1 (1200 mg BID, n=7) | TEAE Acute kidney injury Grade 2 (1200 mg BID, n=7) | TEAE Acute kidney injury Grade 3 (1200 mg BID, n=7) | TEAE Anaemia Grade 4 (1200 mg BID, n=7) | TEAE Anxiety Grade 2 (1200 mg BID, n=7) | TEAE Arthralgia Grade 1 (1200 mg BID, n=7) | TEAE Constipation Grade 2 (1200 mg BID, n=7) | TEAE Contusion Grade 2 (1200 mg BID, n=7) | TEAE Cough Grade 1 (1200 mg BID, n=7) | TEAE Cough Grade 2 (1200 mg BID, n=7) | TEAE Decreased appetite Grade 1 (1200 mg BID, n=7) | TEAE Decreased appetite Grade 3 (1200 mg BID, n=7) | TEAE Dyspnoea Grade 3 (1200 mg BID, n=7) | TEAE Epistaxis Grade 1 (1200 mg BID, n=7) | TEAE Epistaxis Grade 3 (1200 mg BID, n=7) | TEAE Fatigue Grade 1 (1200 mg BID, n=7) | TEAE Fatigue Grade 3 (1200 mg BID, n=7) | TEAE General physical health deterioration Grade 3 (1200 mg BID, n=7) | TEAE General physical health deterioration Grade 5 (1200 mg BID, n=7) | TEAE Gingivitis Grade 1 (1200 mg BID, n=7) | TEAE Haematuria Grade 2 (1200 mg BID, n=7) | TEAE Haematuria Grade 3 (1200 mg BID, n=7) | TEAE Headache Grade 1 (1200 mg BID, n=7) | TEAE Headache Grade 2 (1200 mg BID, n=7) | TEAE Headache Grade 3 (1200 mg BID, n=7) | TEAE Hyperkalaemia Grade 1 (1200 mg BID, n=7) | TEAE Hyperkalaemia Grade 4 (1200 mg BID, n=7) | TEAE Hypertension Grade 2 (1200 mg BID, n=7) | TEAE Hyperuricaemia Grade 3 (1200 mg BID, n=7)
1: TEAE Dry skin Grade 1 (600 mg BID, n=4) | TEAE Epistaxis Grade 1 (600 mg BID, n=4) | TEAE Epistaxis Grade 3 (600 mg BID, n=4) | TEAE Fall Grade 1 (600 mg BID, n=4) | TEAE Fatigue Grade 1 (600 mg BID, n=4) | TEAE Febrile neutropenia Grade 3 (600 mg BID, n=4) | TEAE Gingivitis Grade 1 (600 mg BID, n=4) | TEAE Haematuria Grade 2 (600 mg BID, n=4) | TEAE Hyperkalaemia Grade 1 (600 mg BID, n=4) | TEAE Hyperkalaemia Grade 4 (600 mg BID, n=4) | TEAE Hyperuricaemia Grade 1 (600 mg BID, n=4) | TEAE Hyperuricaemia Grade 3 (600 mg BID, n=4) | TEAE Lung infection Grade 3 (600 mg BID, n=4) | TEAE Nausea Grade 1 (600 mg BID, n=4) | TEAE Oedema peripheral Grade 1 (600 mg BID, n=4) | TEAE Productive cough Grade 1 (600 mg BID, n=4) | TEAE Pyrexia Grade 1 (600 mg BID, n=4) | TEAE Pyrexia Grade 2 (600 mg BID, n=4) | TEAE Rash Grade 2 (600 mg BID, n=4) | TEAE Sepsis Grade 4 (600 mg BID, n=4) | TEAE Vomiting Grade 1 (600 mg BID, n=4) | TEAE Weight decreased Grade 2 (600 mg BID, n=4) | Related TEAE Differentiation syndrome Grade 3 (1200 mg BID, n=7) | Related TEAE Dyspnea Grade 1 (1200 mg BID, n=7) | Related TEAE Fatigue Grade 2 (1200 mg BID, n=7) | Related TEAE Nausea Grade 1 (1200 mg BID, n=7) | TEAE Anxiety Grade 1 (1200 mg BID, n=7) | TEAE Arthralgia Grade 2 (1200 mg BID, n=7) | TEAE Constipation Grade 1 (1200 mg BID, n=7) | TEAE Contusion Grade 1 (1200 mg BID, n=7) | TEAE Decreased appetite Grade 2 (1200 mg BID, n=7) | TEAE Diarrhea Grade 1 (1200 mg BID, n=7) | TEAE Dry skin Grade 1 (1200 mg BID, n=7) | TEAE Dyspnoea Grade 1 (1200 mg BID, n=7) | TEAE Dyspnoea Grade 2 (1200 mg BID, n=7) | TEAE Fall Grade 1 (1200 mg BID, n=7) | TEAE Haematuria Grade 1 (1200 mg BID, n=7) | TEAE Hypertension Grade 3 (1200 mg BID, n=7)
3: TEAE Anaemia Grade 3 (1200 mg BID, n=7)
2: Related TEAE Diarrhea Grade 2 (1200 mg BID, n=7) | TEAE Diarrhea Grade 2 (1200 mg BID, n=7) | TEAE Epistaxis Grade 2 (1200 mg BID, n=7) | TEAE Fatigue Grade 2 (1200 mg BID, n=7) | TEAE Febrile neutropenia Grade 3 (1200 mg BID, n=7) | TEAE Hyperuricaemia Grade 1 (1200 mg BID, n=7)
